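48-hour exposure; five concentrations; linearly interpolated endpoints. TGI denotes the concentration required for complete inhibition of growth.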
What was measured:
Experiment in all cases: DTP human tumour cell line panel, 48 h
SK-MEL-28 melanoma = tested on: SK-MEL-28 melanoma
MDA-MB-435 = tested on: MDA-MB-435
NCI/ADR-RES ovarian = tested on: NCI/ADR-RES ovarian
TK-10 renal = tested on: TK-10 renal
MALME-3M melanoma = tested on: MALME-3M melanoma
RPMI-8226 leukemia = tested on: RPMI-8226 leukemia
SR leukemia = tested on: SR leukemia
UO-31 renal = tested on: UO-31 renal
CAKI-1 renal = tested on: CAKI-1 renal
DU-145 prostate = tested on: DU-145 prostate
BT-549 breast = tested on: BT-549 breast
SF-539 CNS = tested on: SF-539 CNS
HCT-15 colon = tested on: HCT-15 colon
HT29 colon = tested on: HT29 colon
UACC-257 melanoma = tested on: UACC-257 melanoma
OVCAR-8 ovarian = tested on: OVCAR-8 ovarian
SN12C renal = tested on: SN12C renal
PC-3 prostate = tested on: PC-3 prostate
SK-MEL-2 melanoma = tested on: SK-MEL-2 melanoma
OVCAR-4 ovarian = tested on: OVCAR-4 ovarian
M14 melanoma = tested on: M14 melanoma
EKVX NSCLC = tested on: EKVX NSCLC
ACHN renal = tested on: ACHN renal
NCI-H522 lung = tested on: NCI-H522 lung
SW-620 colon = tested on: SW-620 colon
SK-MEL-5 melanoma = tested on: SK-MEL-5 melanoma
RXF 393 renal = tested on: RXF 393 renal
HCT-116 colon = tested on: HCT-116 colon
T-47D breast = tested on: T-47D breast
NCI-H23 lung = tested on: NCI-H23 lung
SNB-75 CNS = tested on: SNB-75 CNS
MOLT-4 leukemia = tested on: MOLT-4 leukemia
786-0 renal = tested on: 786-0 renal
LOX IMVI melanoma = tested on: LOX IMVI melanoma
MDA-N = tested on: MDA-N
A498 renal = tested on: A498 renal
COLO 205 colon = tested on: COLO 205 colon
HOP-92 NSCLC = tested on: HOP-92 NSCLC
OVCAR-5 ovarian = tested on: OVCAR-5 ovarian
MCF7 breast = tested on: MCF7 breast
IGROV1 ovarian = tested on: IGROV1 ovarian
HCC-2998 colon = tested on: HCC-2998 colon
SNB-19 CNS = tested on: SNB-19 CNS
NCI-H226 lung = tested on: NCI-H226 lung
NCI-H460 lung = tested on: NCI-H460 lung
A549 NSCLC = tested on: A549 NSCLC
HL-60(TB) leukemia = tested on: HL-60(TB) leukemia
SF-295 CNS = tested on: SF-295 CNS
MDA-MB-231 breast = tested on: MDA-MB-231 breast
OVCAR-3 ovarian = tested on: OVCAR-3 ovarian
SK-OV-3 ovarian = tested on: SK-OV-3 ovarian
KM12 colon = tested on: KM12 colon
HOP-62 NSCLC = tested on: HOP-62 NSCLC
U251 CNS = tested on: U251 CNS
UACC-62 melanoma = tested on: UACC-62 melanoma
SF-268 CNS = tested on: SF-268 CNS
K-562 leukemia = tested on: K-562 leukemia
CCRF-CEM leukemia = tested on: CCRF-CEM leukemia

N#CC(C#N)N=Nc1ccc(-c2nc3ccccc3s2)cc1
TGI (SK-MEL-28 melanoma): 35.9 µM | TGI (MDA-MB-435): 39.9 µM | TGI (NCI/ADR-RES ovarian): 15.2 µM | TGI (TK-10 renal): 11.3 µM | TGI (MALME-3M melanoma): 7.99 µM | TGI (RPMI-8226 leukemia): 3.4 µM | TGI (SR leukemia): 10.3 µM | TGI (UO-31 renal): 21.8 µM | TGI (CAKI-1 renal): 20.7 µM | TGI (DU-145 prostate): 19.6 µM | TGI (BT-549 breast): 19.2 µM | TGI (SF-539 CNS): 25.8 µM | TGI (HCT-15 colon): 13.5 µM | TGI (HT29 colon): 20.4 µM | TGI (UACC-257 melanoma): 11.2 µM | TGI (OVCAR-8 ovarian): 43.8 µM | TGI (SN12C renal): 10.8 µM | TGI (PC-3 prostate): 10.1 µM | TGI (SK-MEL-2 melanoma): 16.7 µM | TGI (OVCAR-4 ovarian): 78.6 µM | TGI (M14 melanoma): 32.1 µM | TGI (EKVX NSCLC): 22.8 µM | TGI (ACHN renal): 15.2 µM | TGI (NCI-H522 lung): 7.8 µM | TGI (SW-620 colon): 22.7 µM | TGI (SK-MEL-5 melanoma): 9.37 µM | TGI (RXF 393 renal): 15.8 µM | TGI (HCT-116 colon): 13.6 µM | TGI (T-47D breast): 8.21 µM | TGI (NCI-H23 lung): 8.72 µM | TGI (SNB-75 CNS): 54.8 µM | TGI (MOLT-4 leukemia): 3.68 µM | TGI (786-0 renal): 22 µM | TGI (LOX IMVI melanoma): 20.4 µM | TGI (MDA-N): 63.1 µM | TGI (A498 renal): 23.8 µM | TGI (COLO 205 colon): 14 µM | TGI (HOP-92 NSCLC): 4.64 µM | TGI (OVCAR-5 ovarian): 50.5 µM | TGI (MCF7 breast): 14.9 µM | TGI (IGROV1 ovarian): 22.2 µM

O=c1[nH]c2ccccc2c(O)c1/C=N/C(=S)NCCc1ccccc1
TGI (SK-MEL-28 melanoma): > 100 µM | TGI (HCC-2998 colon): > 100 µM | TGI (MDA-MB-435): > 100 µM | TGI (NCI/ADR-RES ovarian): > 100 µM | TGI (TK-10 renal): > 100 µM | TGI (SNB-19 CNS): > 100 µM | TGI (NCI-H226 lung): > 100 µM | TGI (NCI-H460 lung): > 100 µM | TGI (UO-31 renal): > 100 µM | TGI (CAKI-1 renal): > 100 µM | TGI (A549 NSCLC): > 100 µM | TGI (DU-145 prostate): > 100 µM | TGI (HL-60(TB) leukemia): > 100 µM | TGI (BT-549 breast): > 100 µM | TGI (SF-539 CNS): > 100 µM | TGI (HCT-15 colon): > 100 µM | TGI (SF-295 CNS): > 100 µM | TGI (HT29 colon): > 100 µM | TGI (UACC-257 melanoma): > 100 µM | TGI (OVCAR-8 ovarian): > 100 µM | TGI (SN12C renal): > 100 µM | TGI (PC-3 prostate): > 100 µM | TGI (MDA-MB-231 breast): > 100 µM | TGI (OVCAR-3 ovarian): > 100 µM | TGI (SK-MEL-2 melanoma): > 100 µM | TGI (OVCAR-4 ovarian): > 100 µM | TGI (M14 melanoma): > 100 µM | TGI (SK-OV-3 ovarian): > 100 µM | TGI (EKVX NSCLC): > 100 µM | TGI (ACHN renal): > 100 µM | TGI (SW-620 colon): > 100 µM | TGI (KM12 colon): > 100 µM | TGI (SK-MEL-5 melanoma): > 100 µM | TGI (HCT-116 colon): > 100 µM | TGI (T-47D breast): > 100 µM | TGI (NCI-H23 lung): > 100 µM | TGI (SNB-75 CNS): > 100 µM | TGI (MOLT-4 leukemia): > 100 µM | TGI (786-0 renal): > 100 µM | TGI (HOP-62 NSCLC): > 100 µM | TGI (LOX IMVI melanoma): > 100 µM | TGI (MDA-N): > 100 µM | TGI (U251 CNS): > 100 µM | TGI (COLO 205 colon): > 100 µM | TGI (HOP-92 NSCLC): > 100 µM | TGI (OVCAR-5 ovarian): > 100 µM | TGI (MCF7 breast): > 100 µM | TGI (UACC-62 melanoma): > 100 µM | TGI (IGROV1 ovarian): > 100 µM

C/C1=C\CC[C@@]2(C)O[C@@H]2C[C@@H]2[C@H](C/C(C)=C/CC1)OC(=O)C21CC1
TGI (SK-MEL-28 melanoma): > 100 µM | TGI (HCC-2998 colon): > 100 µM | TGI (MDA-MB-435): > 100 µM | TGI (NCI/ADR-RES ovarian): > 100 µM | TGI (TK-10 renal): > 100 µM | TGI (MALME-3M melanoma): > 100 µM | TGI (RPMI-8226 leukemia): 46.3 µM | TGI (SNB-19 CNS): > 100 µM | TGI (SR leukemia): 48 µM | TGI (NCI-H460 lung): > 100 µM | TGI (UO-31 renal): > 100 µM | TGI (CAKI-1 renal): > 100 µM | TGI (A549 NSCLC): > 100 µM | TGI (DU-145 prostate): > 100 µM | TGI (HL-60(TB) leukemia): 93.7 µM | TGI (BT-549 breast): > 100 µM | TGI (SF-539 CNS): > 100 µM | TGI (HCT-15 colon): > 100 µM | TGI (SF-295 CNS): > 100 µM | TGI (HT29 colon): > 100 µM | TGI (UACC-257 melanoma): > 100 µM | TGI (OVCAR-8 ovarian): > 100 µM | TGI (SN12C renal): > 100 µM | TGI (PC-3 prostate): > 100 µM | TGI (MDA-MB-231 breast): > 100 µM | TGI (OVCAR-3 ovarian): > 100 µM | TGI (SK-MEL-2 melanoma): > 100 µM | TGI (M14 melanoma): > 100 µM | TGI (SK-OV-3 ovarian): > 100 µM | TGI (EKVX NSCLC): > 100 µM | TGI (ACHN renal): > 100 µM | TGI (SW-620 colon): > 100 µM | TGI (KM12 colon): > 100 µM | TGI (SK-MEL-5 melanoma): > 100 µM | TGI (RXF 393 renal): > 100 µM | TGI (HCT-116 colon): > 100 µM | TGI (T-47D breast): > 100 µM | TGI (SNB-75 CNS): > 100 µM | TGI (MOLT-4 leukemia): 61.2 µM | TGI (786-0 renal): > 100 µM | TGI (HOP-62 NSCLC): > 100 µM | TGI (MDA-N): > 100 µM | TGI (U251 CNS): > 100 µM | TGI (A498 renal): > 100 µM | TGI (COLO 205 colon): > 100 µM | TGI (OVCAR-5 ovarian): > 100 µM | TGI (SF-268 CNS): > 100 µM | TGI (K-562 leukemia): 66.2 µM | TGI (CCRF-CEM leukemia): 65.8 µM | TGI (MCF7 breast): > 100 µM | TGI (UACC-62 melanoma): > 100 µM | TGI (IGROV1 ovarian): 72.7 µM

From PubChem BioAssay (NCI)
